Test results reported in US20050079604A1, “Method for improving functionality of tissue constructs” (priority 2001, published 2005).

How the values were obtained:
[1] = test system: reconstructed human vascular media (RHVM); assay: Contraction of RHVM rings in response to cumulative doses of histamine (myograph, isometric tension); type: cell-based; details: 21 days of maturation, FIG. 9
Procedure: (§1) Reconstructed human vascular media (RHVM) were prepared for the control tissue construct (not aligned) as described in Example I. The RHVM used for this example were treated as follow: RHVM cultured in medium described above represent the control condition (non-treated RHVM) and RHVM supplemented with cell proliferation inhibitors, heparin or olomoucine (treated RHVM).
To assess the contractile function of RHVM which were treated or not (control condition), RHVM rings of 5-7 mm in length were removed from the tubular support used for culture after 21 days of maturation. Rings were mounted in a myograph and challenged in the presence of cumulative doses of histamine, a vasoactive agent. Isometric tension generated by RHVM contraction was directly recorded via a force transducer (Kilster-Morse, DSG BE4).

[2] = test system: smooth muscle cells present in reconstructed human vascular media; assay: Immunolabeled differentiation markers of smooth muscle cells in RHVM; type: cell-based; details: FIG. 10
Procedure: as §1

## heparin
[1]; higher doses of histamine, 10^−5 and 10^−4 M
  contraction of RHVM cultured with the cell proliferation inhibitor vs control RHVM: significantly greater contraction
[1]; low dose of histamine (10^−6 M)
  contraction of RHVM cultured with the cell proliferation inhibitor vs non-treated RHVM: no significant difference of contraction
[2]
  expression of differentiation markers in cells cultured with the inhibitor vs without: increased
